System: Gli1 protein
Assay: Gli1 knock-down in DU145 cells, Western blot
Type: cell-based, Human
Settings: 6 μM PMO
Experimental: DU145 cells were trypsinized and plated (500 000 cells/well) in a 24 well-dish the day prior to the experiment. […] Cells were washed once with PBS and delivery mixes were added on cells for five minutes. Then, 2 mL of RPMI-1640 containing 10% FBS was added to the mix and removed. Untreated cells were incubated with RPMI-1640 only. Cells were incubated in fresh RPMI-1640 containing 10% FBS. Forty height hours later, medium was removed and cells were washed once with PBS prior to trypsinization. Cells were harvested, collected by centrifugation, washed, and resuspended with PBS. Then, PMO-FITC positive and PMO-FITC negative cells were sorted and collected by virtue of FACS (BD FACS Aria Fusion). FITC-positive and FITC-negative cell samples were collected by centrifugation and resuspended in 50 μL protein extraction RIPA buffer (150 mM NaCl, 1% Nonidet™ P-40, 0.1% SDS, 0.5% Sodium deoxycholate, 25 mM Tris). Total protein concentrations were measured with a BCA protein assay kit. For all conditions, 10 μg of proteins were prepared at a final volume of 40 μL with 4× Laemmeli and RIPA buffer. Protein samples were then heated at 90° C. and separated through an 8% SDS-PAGE gel. Proteins were then transferred over night (25 volts) onto a […] PVDF membrane. Membranes were blocked using a 5% bovine serum albumin, Tris Buffer Saline, 0.1% Tween® 20 solution (5% BSA/TBS-T) for an hour. After blocking, the membrane was incubated for an hour with a 5% BSA/TBS-T solution containing anti alpha-Actinin (D6F6) primary antibody at a 1:1000. Alpha-Actinin protein present in the cell lysates served as loading control. Subsequently, the membranes were incubated over night with a 5% BSA/TBS-T solution containing anti-Gli1 primary antibody diluted 1:500. The membrane was then subjected to a 1-hour incubation at 1:5000 dilution of HRP-conjugated goat anti-rabbit secondary antibody 5% BSA/TBS-T solution. Chemiluminescence detection was performed using Clarity™ Western ECL Substrate and a ChemiDoc™ XRS apparatus. Gli1 and Alpha-Actinin densitometry was assessed using ImageJ™ software. […]

PMO-Gli1: antisense PMO molecule designed to knock-down expression of the Gli1 protein; off-target control in the GFPd assay (antisense GTCATCGAGTTGAACATGGCGTCTC; all phosphorodiamidate morpholino (PMO))
Gli1 protein expression (3.75 μM FSD250, 48 hours): knocked-down
Gli1 protein expression (FITC+ cells vs FITC− cells, 5 μM FSD250, 48 hours): knocked-down
